Source: US6805880B1, “Pharmaceutical delivery system for vitamin C and vitamin E and use of a combination of vitamin C and E for preventing or treating conditions involving oxidative stress” (Ferrosan A/S, priority 1999, dated 2004)
Where two headings read alike, the source gives them in different places.

Key:
[1] = test system: common carotid artery intima-media thickness; assay: ASAP study: progression of common carotid atherosclerosis (slope of ultrasonographic mean CCA-IMT); assay type: in vivo, human; settings: for mean adjusted 3-year change of the mean carotid artery intima-media thickness (supplement: Yes): multivariate general linear model; for OR of atherosclerotic progression: double placebo as reference; for average unadjusted increase (slope) of the mean CCA-IMT: 3 years; for treatment effect on the proportion with progression: compared with placebo
Protocol: All subjects gave a written informed consent.
The subjects came to baseline visits and were randomised. Follow-up visits were 6, 12, 18, 24, 30 and 36 months later. Supplements were given, returned tablets were counted and ultrasonographic assessment of common carotid artery (CCA) intima-media thickness (IMT) was carried out at all these seven visits.
Equipment: Two identical Biosound Phase 2 systems were used (Biosound, Indianapolis, Ind., USA) equipped with a 8-10 MHz annular array transducer, with a measurement precision of 0.03 mm (41). The scannings were videotaped with PAL S-VHS Panasonic AG 7330E VCR.
Scanning (imaging) procedure and videorecording: The ultrasonographic scanning of the common carotid arteries (CCA), the carotid bulbs and the proximal internal carotid artery (ICA) was performed after a supine rest of 10 minutes, the subject in the supine position. […] The scanning was started with a diagnostic examination of entire accessible carotid tree, to find the most severe lesions. Secondly, the site of the greatest IMT at baseline in the CCA far wall was located and scanned thoroughly. This area was scanned from three angles: anterolateral, lateral and posterolateral.
Measurement from videotapes: All IMT measurements (both baseline and follow-up) from videotapes were made at the same site and angle at all examinations of each subject, which was the site with the greatest IMT (in any angle) which was clearly visible at baseline in the far wall of in CCA below the bulb. At this location IMT was measured in diastole for a length of 10 mm (or shorter, if not visible) in one angle for the far wall. Most often this was the distal centimeter of CCA. All IMT measurements were carried out after the 36-month examination.
Ultrasound image analysis: Computer analysis of ultrasound images to measure IMT was performed with a reading station equipped with Data Translation DT 2861 video frame grabber interfaced to a Panasonic AG 7355 VCR. The Prosound software, utilising automated boundary detection, was used. IMT was determined as the average difference at on the average 100 points between intima/lumen and media/adventitia interface (42).
Construction of the main outcome variable: Atherosclerotic progression was defined a priori as the linear regression slope of the mean common carotid IMT over six or seven points of follow-up time (0, 6, 12, 18, 24, 30 and 36 months). For 34 subjects, one follow-up was missing. First, the mean CCA-IMT from the right and the left side was averaged, and then the slope was computed across time-specific means.
All study participants for whom the main outcome variable was available, were included in the statistical analysis. Analyses were according to the intention-to-treat principle. As the subjects were randomised separately in four strata (smoking men, non-smoking men, smoking women, non-smoking women), this stratification was maintained also in the statistical analysis. As the a priori power calculations were based on stratified analysis in men and women, the primary statistical analysis was done in these two strata (Table 6).
To test the consistency of results, the outcome variable, the slope of the mean CCA-IMT over all available follow-up assessments, was used both as a continuous variable in general linear models and as a dichotomous variable in logistic models. The cut-off for the dichotomisation was the median among all 225 men. […] Odds ratios were estimated as antilogarithms of coefficients and their confidence intervals (Cl) based on normality assumption of SPSS 8.0 for Windows.
Three dummy variables were constructed to indicate whether the participant was randomised to receive only vitamin E, only vitamin C or both vitamins, and these were entered jointly in logistic models. The comparisons in the linear models were between each treatment group and all other groups. […]

[2] = Protocol: (§1) The study consisted of 8-week dietary counseling and placebo lead-in phase and a 3-year double-masked phase, for which the subjects were randomly allocated to either (i) […] of d-α-tocopheryl acetate twice daily (272 IU of vitamin E a day), ii) 250 mg slow-release ascorbic acid twice daily, (iii) both d-α-tocopheryl acetate and ascorbic acid in a single tablet, or (iv) placebo only. After the double-blind 3-year period, the study is continuing for another three years as an open study. The doses were chosen on the basis of pilot and kinetic studies (13, 15). The subjects were randomised separately in four strata of approximately equal size: (1) smoking (^35 cigarettes/day) men, (2) nonsmoking men, (3) smoking postmenopausal women, and (4) nonsmoking postmenopausal women. All subjects gave a written informed consent.
[3] = in vivo
Protocol: The inventors conducted a controlled trial with a formulation including both slow release vitamin C and conventional release vitamin E (250 mg AA and 91 mg α-tocopherol). 520 men and women, smokers and non-smokers, were randomised to vitamin C slow release, vitamin E, a formulation with vitamin E and slow release vitamin C, or placebo (Table 4).
In a double-masked 2×2 factorial trial, 520 smoking and non-smoking men and postmenopausal women aged 45-69 years with serum cholesterol ^35.0 […] were randomised in these four strata to receive either 182 mg of d-α-tocopheryl acetate, 500 mg of slow-release vitamin C daily, both or placebo for three years. Atherosclerotic progression was defined as linear regression slope of the mean ultrasonographically assessed common carotid intima-media thickness (IMT) over time.
as §1
Ascorbic acid was stabilised in heparin plasma with metaphosphoric acid immediately after plasma separation, and frozen at −80° C. Combined ascorbic acid and dehydroascorbic acid were determined with an HPLC method (39). Heparin plasma for α-tocopherol was extracted with ethanol and hexane and measured by a reversed phase HPLC method (15). Cholesterol and triglycerides were determined with enzymatic […] methods (30). Serum LDL cholesterol was measured based on precipitation using polyvinyl sulfate and HDL cholesterol after precipitation with magnesium chloride (30). Plasma fibrinogen concentration was determined with a clotting method (30), plasma homocysteine with an HPLC method (44), and serum ferritin by an immunoradiometric assay (Bio Rad, Quantimune, Hercules, Calif.). Dietary intake of foods and nutrients was assessed at baseline by 4-day instructed food recording. Physical activity was assessed by 12-month checked questionaire (43). Blood pressure was measured manually in sitting position after a rest of 10 minutes, three measurements at 3 minutes' intervals.

[4] = men (n = 225), multivariate logistic model
[5] = women (n = 233), multivariate logistic model
[6] = female, human, in vivo, 3 years

Compound | mean adjusted 3-year change of the mean carotid artery intima-media thickness (supplement: Yes) ([1]; men (n = 225)) | OR of atherosclerotic progression [1, 4] | average unadjusted increase (slope) of the mean CCA-IMT ([1]; men, placebo 0.020) | treatment effect on the proportion with progression ([1]; men) | OR of atherosclerotic progression ([1]; non-smoking men (n = 125)) | OR of atherosclerotic progression ([1]; non-smoking women (n = 123)) | OR of atherosclerotic progression ([1]; smoking men (n = 100)) | OR of atherosclerotic progression ([1]; smoking women (n = 110)) | mean adjusted 3-year change of the mean carotid artery intima-media thickness (supplement: Yes) ([1]; women (n = 233)) | OR of atherosclerotic progression [1, 5] | average unadjusted increase (slope) of the mean CCA-IMT ([1]; women, placebo 0.016) | safety of the supplements ([2]; 3 years) | drop-outs: Death ([2]; men, number of subjects) | drop-outs: Death ([2]; women, number of subjects) | other results
O=C1O[C@H]([C@@H](O)CO)C(O)=C1O [Vitamin C, ascorbic acid] | 0.0119 mm/year | 0.44 | 0.017 mm/year | non-significant | 0.30 | 0.99 | 0.45 | 0.69 | 0.0174 mm/year | 1.08 | 0.017 mm/year | safe | 1 | 0 | effect on atherosclerotic progression ([1]; smoking men): nonsignificant trend towards protection; drop-outs: Adverse event [2, 6]: 2; drop-outs: Severe adverse event [2, 6]: 1; drop-outs: Adverse event ([2]; male, human, in vivo, 3 years): 2; drop-outs: Severe adverse event ([2]; male, human, in vivo, 3 years): 1; drop-outs: Death ([2]; men, number of subjects, listed as vitamin C): One; change of plasma α-tocopherol (vitamin E in plasma) ([3]; female, human): 4.0%; change of plasma α-tocopherol (vitamin E in plasma) ([3]; male, human): 5.1%; mean plasma α-tocopherol concentration, after supplementation ([3]; male, human): 33.9 µmol/L; mean plasma α-tocopherol concentration, initial value ([3]; male, human): 32.3 µmol/L
CC(=O)Oc1c(C)c(C)c2c(c1C)CC[C@@](C)(CCC[C@H](C)CCC[C@H](C)CCCC(C)C)O2 [Vitamin E, d-α-tocopheryl acetate] | 0.0118 mm/year | 0.56 | 0.018 mm/year | non-significant | 1.07 | 1.13 | 0.21 | 0.76 | 0.0165 mm/year | 1.05 | 0.015 mm/year | safe | 3 | 0 | drop-outs: Adverse event ([2]; men, number of subjects): 1; drop-outs: Severe adverse event ([2]; men, number of subjects): 1; drop-outs: Death ([2]; men, number of subjects, listed as vitamin): three; drop-outs: Adverse event ([2]; women, number of subjects): 3; drop-outs: Severe adverse event ([2]; women, number of subjects): 2; mean plasma α-tocopherol concentration, after supplementation [3]: 60.1 µmol/L; mean plasma α-tocopherol concentration, initial value [3]: 31.7 µmol/L
